Measurements from PubChem BioAssay (NCI).
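1) Cells in 96-well plates. 2) Compound, 48 h, 5 concentrations. 3) Linear interpolation between surrounding doses. 4) Unreached endpoint = highest concentration. GI50 is the concentration that inhibits growth by half. TGI is the concentration that stops growth completely.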

What was measured:
Test in all cases: NCI-60 cell line screen, 48 h
[1] = tested on: SW-620 colon
[2] = tested on: SK-MEL-28 melanoma
[3] = tested on: SNB-19 CNS
[4] = tested on: DU-145 prostate
[5] = tested on: PC-3 prostate
[6] = tested on: HOP-92 NSCLC
[7] = tested on: UACC-62 melanoma
[8] = tested on: LOX IMVI melanoma
[9] = tested on: T-47D breast
[10] = tested on: IGROV1 ovarian
[11] = tested on: KM12 colon
[12] = tested on: SK-MEL-2 melanoma
[13] = tested on: 786-0 renal
[14] = tested on: NCI-H23 lung
[15] = tested on: SK-MEL-5 melanoma
[16] = tested on: MOLT-4 leukemia
[17] = tested on: HS 578T breast
[18] = tested on: NCI/ADR-RES ovarian
[19] = tested on: OVCAR-3 ovarian
[20] = tested on: NCI-H460 lung
[21] = tested on: COLO 205 colon
[22] = tested on: A498 renal
[23] = tested on: K-562 leukemia
[24] = tested on: HT29 colon
[25] = tested on: HCC-2998 colon
[26] = tested on: ACHN renal
[27] = tested on: NCI-H226 lung
[28] = tested on: BT-549 breast
[29] = tested on: NCI-H522 lung
[30] = tested on: U251 CNS
[31] = tested on: HCT-15 colon
[32] = tested on: SF-268 CNS
[33] = tested on: OVCAR-8 ovarian
[34] = tested on: HL-60(TB) leukemia
[35] = tested on: HOP-62 NSCLC
[36] = tested on: M14 melanoma
[37] = tested on: EKVX NSCLC
[38] = tested on: HCT-116 colon
[39] = tested on: OVCAR-5 ovarian
[40] = tested on: CCRF-CEM leukemia
[41] = tested on: MDA-MB-435
[42] = tested on: TK-10 renal
[43] = tested on: OVCAR-4 ovarian
[44] = tested on: SK-OV-3 ovarian
[45] = tested on: A549 NSCLC
[46] = tested on: UO-31 renal
[47] = tested on: MALME-3M melanoma
[48] = tested on: SR leukemia
[49] = tested on: MDA-MB-231 breast
[50] = tested on: RXF 393 renal
[51] = tested on: SN12C renal
[52] = tested on: MCF7 breast
[53] = tested on: CAKI-1 renal
[54] = tested on: UACC-257 melanoma
[55] = tested on: RPMI-8226 leukemia
[56] = tested on: SNB-75 CNS
[57] = tested on: SF-295 CNS

CC1=C2C(=C[C@@](C)(COS(C)(=O)=O)[C@@H]2O)C(=O)[C@](C)(O)C12CC2
GI50 [1]: 320 nM
TGI [1]: > 100000 nM
GI50 [2]: 678 nM
TGI [2]: 2500 nM
GI50 [3]: 477 nM
TGI [3]: 6010 nM
GI50 [4]: 366 nM
TGI [4]: 5040 nM
GI50 [5]: 624 nM
TGI [5]: 4820 nM
GI50 [6]: 357 nM
TGI [6]: 1480 nM
GI50 [7]: 257 nM
TGI [7]: 731 nM
GI50 [8]: 365 nM
TGI [8]: 1690 nM
GI50 [9]: 1790 nM
TGI [9]: 7780 nM
GI50 [10]: 556 nM
TGI [10]: 5670 nM
GI50 [11]: 579 nM
TGI [11]: 7130 nM
GI50 [12]: 289 nM
TGI [12]: 793 nM
GI50 [13]: 1960 nM
TGI [13]: 6740 nM
GI50 [14]: 350 nM
TGI [14]: 1560 nM
GI50 [15]: 272 nM
TGI [15]: 755 nM
GI50 [16]: 331 nM
TGI [16]: > 100000 nM
GI50 [17]: 1770 nM
TGI [17]: 4780 nM
GI50 [18]: 762 nM
TGI [18]: 5970 nM
GI50 [19]: 544 nM
TGI [19]: 4530 nM
GI50 [20]: 216 nM
TGI [20]: 517 nM
GI50 [21]: 761 nM
TGI [21]: 2840 nM
TGI [22]: 694 nM
GI50 [23]: 478 nM
TGI [23]: > 100000 nM
GI50 [24]: 414 nM
TGI [24]: 28600 nM
GI50 [25]: 648 nM
TGI [25]: 2870 nM
GI50 [26]: 349 nM
TGI [26]: 3550 nM
GI50 [27]: 2120 nM
TGI [27]: 6170 nM
GI50 [28]: 632 nM
TGI [28]: 2470 nM
GI50 [29]: 347 nM
TGI [29]: 1560 nM
GI50 [30]: 286 nM
TGI [30]: 1340 nM
GI50 [31]: 443 nM
TGI [31]: 5140 nM
GI50 [32]: 333 nM
TGI [32]: 2290 nM
GI50 [33]: 1740 nM
TGI [33]: 12000 nM
GI50 [34]: 466 nM
TGI [34]: 4530 nM
GI50 [35]: 371 nM
TGI [35]: 2040 nM
GI50 [36]: 717 nM
TGI [36]: 2540 nM
GI50 [37]: 1660 nM
TGI [37]: 5220 nM
GI50 [38]: 315 nM
TGI [38]: > 31700 nM
GI50 [39]: 382 nM
TGI [39]: 3060 nM
GI50 [40]: 344 nM
TGI [40]: > 100000 nM
GI50 [41]: 757 nM
TGI [41]: 2210 nM
GI50 [42]: 2220 nM
TGI [42]: 7140 nM
GI50 [43]: 1450 nM
TGI [43]: 5680 nM
GI50 [44]: 447 nM
TGI [44]: 2220 nM
GI50 [45]: 604 nM
TGI [45]: 6920 nM
GI50 [46]: 1570 nM
TGI [46]: 5520 nM
GI50 [47]: 459 nM
TGI [47]: 1760 nM
GI50 [48]: 360 nM
TGI [48]: > 100000 nM
GI50 [49]: 1340 nM
TGI [49]: 5990 nM
GI50 [50]: 335 nM
TGI [50]: 930 nM
GI50 [51]: 1990 nM
TGI [51]: 10700 nM
GI50 [52]: 238 nM
TGI [52]: 2550 nM
GI50 [53]: 406 nM
TGI [53]: 5360 nM
GI50 [54]: 2390 nM
TGI [54]: 6900 nM
GI50 [55]: 3660 nM
TGI [55]: 52000 nM
GI50 [56]: 1370 nM
TGI [56]: 2860 nM
GI50 [57]: 293 nM
TGI [57]: 1280 nM
